Experimental data: PMC6804080, “Benzoxaboroles—Novel Autotaxin Inhibitors” (Molecules, 2019)
In brackets after ≈: the same amount, converted by molar mass. Several values for one entry are separate records, joined by “and”; a condition that tells them apart may be missing. Equal values may be shown once.

Tests used:
[1] = metabolic stability in rat liver microsomes; type: in vitro ADME
Experimental: (§1) Metabolic stability was assessed in rat and human liver microsomes, with testosterone and propranolol as positive controls. All compounds, at a final concentration of 1 μM (0.03% DMSO), were incubated in a phosphate buffer (50 mM, pH 7.4) for 60 min at 37 °C, together with liver microsomes in the absence and presence of NADPH generating system (nicotinamide adenine dinucleotide phosphate (NADP, 2 mM), glucose-6-phosphate (20 mM), glucose-6-phosphate dehydrogenase (6U) and magnesium chloride (2 mM)). Aliquots were taken at different time points (0, 10, 20, 30, 45 and 60 min), followed by reaction termination by addition of CH3CN:CH3OH 2:1 v/v, containing diclofenac as internal standard (IS). Samples were then centrifuged (at 2000 rpm at 4 °C for 30 min), and resulting supernatants were subjected to LC/MS/MS analysis. The in vitro half-life was calculated in GraphPadPrism software from % remaining vs. time regression using non-linear regression fit. In vitro intrinsic clearance, expressed as mL/min/g liver, was determined from in vitro half-life and normalized for the protein concentration in the incubation mixture, assuming a 52.5 mg/g liver.

[2] = Chrom logD determination by gradient HPLC (CHI); type: physicochemical; conditions: pH 7.4, Luna C18 column; for chromatographic logD: reversed-phase HPLC, Phenomenex Luna C18 column
Experimental: clogP values were calculated for all compounds using the Percepta software. Chrom logD was determined experimentally using a procedure described in the supplementary data. Furthermore, the correlation between calculated clogP values and experimentally determined Chrom log D values were explored for molecules containing boron functional groups such as boronic acids and benzoxaboroles.
Chrom logD values were determined from the following equation: Chrom logD = 0.0857 × CHI − 2 [39]. Chromatographic hydrophobic index (CHI) values were determined from the gradient retention times (RT). These values approximately corresponded to the volume percentage of organic component in the mobile phase when the compound elutes. CHI values were determined at pH 7.4. Chromatograms were obtained using on Agilent 1100 Series liquid chromatography system with an HPLC diode-array detector (DAD) coupled with a Micromass Quattro micro atmosphere pressure ionization (API) mass spectrometer. The column used for analyses was Phenomenex Luna C18 (50 × 3 mm, 5 µm, 100 Å). The column was maintained at 25 °C. The flow rate was 1.0 mL/min. The mobile phase was composed of 50 mM ammonium acetate in water at pH 7.4 (solvent A) and acetonitrile (solvent B). The solvent gradient condition was initially 0.5% B, and then it increased linearly to 100% B over 3.0 min, remaining at 100% B for 0.5 min, then decreasing linearly to 0% B over 0.2 min followed by an equilibration period of 1.3 min prior to the next injection. The total experimental duration was 5 min. Injection volume was 2.0 µl. Samples temperature was maintained at 15 °C in the autosampler chamber. A group of ten standard compounds having different CHI values was used for calibration of RP-HPLC [40].

[3] = plasma protein binding, equilibrium dialysis, human plasma; type: in vitro ADME; conditions: for fraction unbound at 4 h, 5 µM: pH 7.4, read-out: PPB: fraction bound, human (converted)
Experimental: (§2) Plasma protein binding was measured using the equilibrium dialysis technique. Positive controls included in this assay were: Acebutolol (low binding) and nicardipine (very high binding). The assay was performed in a 96-well Teflon dialysis unit, where each well consisted of two chambers separated by a dialysis membrane. Plasma (human and rat, commercially obtained from Seralab) spiked with each compound (final concentration: 5 µM, 0.5% DMSO) were added to one chamber, and a blank buffer solution (60 mM Na2HPO4/14 mM KH2PO4/70 mM NaCl; pH 7.4) was added to the other side of the well. Each compound was analyzed in duplicate, for 4 h at 37 °C. After 4 h, both the plasma (free and bound fraction) and buffer (only free fraction) side of the well were sampled, matrix matched, then precipitated with a STOP solution (CH3CN:CH3OH 2:1 v/v, containing diclofenac as internal standard), and centrifuged at 2000 rpm for 30 min (+4 °C). The resulting supernatants were analyzed by LC-MS/MS. The fraction bound was calculated as the concentration difference (analyte vs. internal standard peak area ratio) in the plasma and buffer sides divided by the total concentration in the plasma side. Sampling was also performed from spiked plasma at t = 0 min in order to determine recovery, i.e., % of compound detected at t = 4 h in both the plasma and buffer chambers divided by the compound detected at t = 0 min.

[4] = kinetic solubility, turbidimetric method; type: physicochemical; conditions: for solubility kinetic at 1 h: 37 °C, pH 7.4, aqueous buffer, kinetic from dmso stock, Solubility (kinetic solubility range)
Experimental: Turbidimetric solubility allows for a rapid determination of kinetic solubility by using small amounts of the test compound. Assay controls were α-naphtoflavone (low solubility) and sulfaphenazole (expected solubility >100µM). DMSO stock solutions (10 mM) of each compound were first serially diluted 1 in 3 in DMSO and then spiked into an aqueous buffer (100 mM PBS), resulting in 5 following final concentration: 100, 30, 10, 3 and 1 µM (each concentration was tested in duplicate). […] Compound samples were compared to a solvent control in an aqueous buffer (DMSO 1% final concentration), and a significant increase of sample absorbance was considered to have occurred when the absorbance reached a 3-fold standard deviation of the average DMSO absorbance. The calculation of solubility range data was made by Excel tool software. Results are expressed as an estimated solubility range.

[5] = metabolic stability in human liver microsomes; type: in vitro ADME
Experimental: as §1

[6] = in vitro plasma stability, human plasma; type: in vitro ADME; conditions: after 4 h
Experimental: (§3) The in vitro plasma stability of the test compounds was studied in human and rat plasma with propranolol, benflorex, and eucatropine as control substances. All compounds at final concentrations of 5 μM (0.5% DMSO) were incubated in a phosphate buffer (50 mM, pH 7.4) for 4 h at 37 °C together with plasma. Aliquots were taken at different time points (0, 30, 120 min and 4 h), followed by reaction termination by the addition of CH3CN:CH3OH 2:1 v/v., which contained diclofenac and warfarin as internal standards (IS). Samples were then centrifuged (at 1600 rpm at 4 °C for 30 min), and the resulting supernatants were subjected to LC/MS/MS analysis. Results are expressed as % remaining.

[7] = in vitro plasma stability, rat plasma; type: in vitro ADME; conditions: after 4 h
Experimental: as §3

Autotaxin (ATX) = target: T1, Autotaxin (ATX) (Homo sapiens, UniProt Q13822); assay: biochemical choline detection assay for ATX inhibition, LysoPC substrate; conditions: for IC50: mean standard deviation from duplicate experiments; for ATX inhibition, range of activity: in words
T1 construct: we added 10 μL of recombinant ATX (2 ng/mL) in a Tris–HCl buffer
Experimental: All 21 new benzoxaboroles derivatives prepared herein were evaluated for ATX inhibition in vitro using a biochemical choline detection assay, combining elements of assays already described in the literature.
[…] Mother plates with serial dilutions of compounds in pure DMSO were prepared from 10 mM DMSO stock solutions. Storplate-384-deep-well-V plates (Perkin Elmer) were also used for mother plate preparation. Compounds were diluted in a DMSO in a ratio of 1:3. An aliquot of 200 nL of compound solution was transferred from the mother plate to the test plate with a Mosquito nanoliter liquid handling system (TTP labtech). The assay was performed in Spectra-Plate-384 TC, transparent, (Perkin Elmer, Cat#6007658) using a 20 µL assay volume. The total final percentage of DMSO in the test media was 1%. Compounds were tested at 11 consecutive three-fold dilutions starting from 50 µM (final concentrations) in duplicate, covering range of 0.0008–50 μM to determine IC50 values. […] After dispensing of compounds directly to the dry plate, we added 10 μL of recombinant ATX (2 ng/mL) in a Tris–HCl buffer (140 mM NaCl, 1mM MgCl2, 5 mM KCl, 3 mM CaCl2, 1 mg/ml bovin serum albumin (BSA, fatty acid free) and 100 mM Tris–HCl, pH 9). […] The above-described solution with dimethyl sulfoxide but without the test compound was used as a control. LysoPC without ATX was used as a control for the autohydrolysis of LysoPC. After 1.5 h of incubation, 20 μL of stop solution and developer was added {Choline oxidase (1.2 U/mL), Peroxidase (1.2 U/mL), TOOS (2.7 mM), 4-Aminoantipyrine (2.7 mM), and EDTA (50 mM)} to the reaction mixture, and absorbance was measured after 30 min of incubation. The absorbance was measured by using Perkin-Elmer EnVision plate reader (λ = 555 nm). Data were analyzed using GraphPad Prism software. The calculation of IC50 data, curves and quality control (QC) analysis was made by using Excel tools and GraphPadPrism software. Briefly, individual concentration–effect curves were generated by plotting the logarithm of the tested concentration of tested compounds (X) vs. corresponding percentage inhibition values (Y) using a least squares (ordinary) fit. […] QC criteria parameters (Z,’ S:B, ΔmP) were checked for every plate.

[8] = plasma protein binding, equilibrium dialysis, rat plasma; type: in vitro ADME; conditions: pH 7.4, rat plasma, read-out: PPB: fraction bound, rat (converted)
Experimental: as §2

[9] = choline release assay using as a substrate

SMILES	LMS: predicted in vivo hepatic clearance, rat [1]	chromatographic logD [2]	fraction unbound at 4 h, 5 µM [3]	solubility kinetic at 1 h [4]	LMS: predicted in vivo hepatic clearance, human [5]	PS (plasma stability), human [6]	PS (plasma stability), rat [7]	IC50 (Autotaxin (ATX); [9])	fraction unbound at 4 h, 5 µM [8]	Chrom logD [2]	PPB: fraction bound, human [3]	Solubility (kinetic solubility range) ([4]; turbidimetric, PBS pH 7.4, after 1h)	IC50 (Autotaxin (ATX); choline release assay using LPC C16:0 as a substrate)	ATX inhibition, range of activity (Autotaxin (ATX))
O=C(OCc1cc(Cl)cc(Cl)c1)N1CCN(C2CCN(C(=O)c3cccc4c3B(O)OC4)C2)CC1 (centres unmarked) [Compound 31, (3,5-dichlorophenyl)methyl 4-[1-(1-hydroxy-3H-2,1-benzoxaborole-7-carbonyl)pyrrolidin-3-yl]piperazine-1-carboxylate]	86 %LBF	4.63	0.022	> 100 µM	85 %LBF	71.6 %remaining	67.9 %remaining	7500 ± 5600 nM	–	–	–	–	–	–
Cc1cc(C)cc(COC(=O)N2CCN(C3CN(C(=O)c4ccc5c(c4)B(O)OC5)C3)CC2)c1 [Compound 45, (3,5-dimethylphenyl)methyl 4-[1-(1-hydroxy-3H-2,1-benzoxaborole-6-carbonyl)azetidin-3-yl]piperazine-1-carboxylate]	61 %LBF	4.17	0.041	> 100 µM	84 %LBF	72.8 %remaining	68.6 %remaining	1000 ± 1150 nM	0.056	–	–	–	–	–
Cc1cc(C)cc(COC(=O)N2CCN(C3CCN(C(=O)c4ccc5c(c4)B(O)OC5)C3)CC2)c1 (centres unmarked) [Compound 43, (3,5-dimethylphenyl)methyl 4-[1-(1-hydroxy-3H-2,1-benzoxaborole-6-carbonyl)pyrrolidin-3-yl]piperazine-1-carboxylate]	80 %LBF	4.13	0.022	> 100 µM	85 %LBF	79.2 %remaining	59.5 %remaining	2700 ± 2110 nM	0.039	–	–	–	–	–
O=C(OCc1cc(Cl)cc(Cl)c1)N1CCN(C2CCN(C(=O)c3ccc4c(c3)B(O)OC4)CC2)CC1 [Compound 34]	77 %LBF	–	–	–	89 %LBF	70.6 %remaining	61.6 %remaining	–	–	5.49	NA ^e/99.2%	>100 µM	920 ± 820 nM	nanomolar range
O=C(OCc1cc(Cl)cc(Cl)c1)N1CCN(C2CCN(C(=O)c3ccc4c(c3)COB4O)CC2)CC1 [Compound 35, (3,5-dichlorophenyl)methyl 4-[1-(1-hydroxy-3H-2,1-benzoxaborole-5-carbonyl)-4-piperidyl]piperazine-1-carboxylate]	86 %LBF	4.58	0.017	> 100 µM	89 %LBF	59.2 %remaining	63.0 %remaining	1800 ± 1750 nM	–	–	–	–	–	–
O=C(OCc1cc(Cl)cc(Cl)c1)N1CCN(C2CN(C(=O)c3ccc4c(c3)B(O)OC4)C2)CC1 [Compound 37, (3,5-dichlorophenyl)methyl 4-[1-(1-hydroxy-3H-2,1-benzoxaborole-6-carbonyl)azetidin-3-yl]piperazine-1-carboxylate]	62 %LBF	4.58	0.021	30 to 100 µM (≈ 15.1 to 50.4 µg/mL)	85 %LBF	79.1 %remaining	71.2 %remaining and 72.2 %remaining	130 ± 120 nM	0.016	–	–	–	–	nanomolar range
